In US5760036A, “Aminediol protease inhibitors” (E. R. Squibb & Sons, Inc., priority 1995, dated 1998) one finds IC50 and inhibition data, which are given here for 17 compounds.

In assay [1] the test system is RF strain of HIV (CEM-SS cells). As to the kind of experiment: Cell Culture Anti-HIV Activity (cell viability, formazan). Type of assay: cell-based. The settings on record: Human immunodeficiency virus 1, CEM-SS, 144 h, CEM-SS cells, RF strain of HIV, multiplicity of infection 0.04, 6 days at 37° C., 450 nm; read-out: HIV (CEM Cells) IC50. The method, boiled down:
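CEM-SS cells (5000/well) infected with HIV RF at MOI 0.04, exposed to half-log serial compound dilutions, incubated 6 days at 37° C. Viability read by tetrazolium reduction to formazan, absorbance 450 nm. IC50 is the concentration raising formazan in infected cells to 50% of uninfected, drug-free cells.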

In assay [2] the target is T1, HIV protease (Human immunodeficiency virus type 1 group M subtype B, UniProt P04585).
T1 construct: and purified protease
The assay can be described thus: HIV Protease Assay. Type of assay: biochemical. The settings on record: pH 5.5, 10 μM inhibitor, 4% DMSO, 450 μM substrate, pH 5.5, 30 minutes at 37° C., RP-HPLC; read-out: HIV Protease % Inhibition at 10 μM. The method, boiled down:
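Purified protease cleaved 450 μM octapeptide substrate in 50 mM sodium acetate pH 5.5 with 100 μg/ml BSA for 30 minutes at 37° C; product analyzed by reverse-phase HPLC at UV220 after H3PO4 quench. Inhibitors tested at final 10 μM with 4% DMSO.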

Where a name gives a salt, the structure may show the parent alone.

Turning to `CC(C)[C@H](NC(=O)[C@@H](N)Cc1ccccc1)C(=O)N[C@@H](Cc1ccccc1)[C@H](O)CNC[C@@H](O)[C@H](Cc1ccccc1)NC(=O)OC(C)(C)C` [Compound 84, [S-[1R*,2S*(2S*,3R*)]-N-[3-[[3-[[(1,1-Dimethylethoxy)carbonyl]amino]-2-hydroxy-4-phenylbutyl]amino]-2-hydroxy-1-(phenylmethyl)propyl)-L-valyl]-L-phenylalanamide, fumarate (2:3) salt], the half-inhibitory concentration (IC50) in assay [1] came to 1.2 µM. Moreover, the inhibition at 10 µM in assay [2] came out at 99%.

For `CC(C)[C@H](NC(=O)CC(N)c1ccccc1)C(=O)N[C@@H](Cc1ccccc1)[C@H](O)CNC[C@@H](O)[C@H](Cc1ccccc1)NC(=O)OC(C)(C)C` (stereo partly drawn) [Compound 86, [S-[1R*,2S*(2S*,3R*)]-N^2 (3-Amino-1-oxo-3-phenylpropyl)-N-[3-[[3-[[(1,1-dimethylethoxy)carbonyl]amino]-2-hydroxy-4-phenylbutyl]amino-[-2-hydroxy-1-(-phenylmethyl)propyl]-L-valinamide, fumarate (2:3) salt], in assay [1], the IC50 was 1.8 µM. Further, the inhibition at 10 µM in assay [2] is 78%.

Take `CC(C)(C)OC(=O)N[C@@H](Cc1ccccc1)[C@H](O)CNC[C@@H](O)[C@H](Cc1ccccc1)NC(=O)C1(NC(=O)OCc2ccccc2)CCCC1` [Compound 87, [1S-[1R*,2S*(2S*,3R*)]]-[2-Hydroxy3-[[2-hydroxy-3-[[[1-[[(phenylmethoxy)-carbonyl]amino]cycloyentyl]carbonyl]amino]-4-phenylbutyl]-amino]-1-(phenylmethyl)propoyl]carbamic acid, 1,1-dimethylethyl ester]: in assay [1], the IC50 is > 0.88 µM. Also, the inhibition at 10 µM in assay [2] amounted to 92%.

In the case of `CC(C)(C)OC(=O)N[C@@H](Cc1ccccc1)[C@H](O)CNC[C@@H](O)[C@H](Cc1ccccc1)NC(=O)[C@@H](NC(=O)OCc1ccccc1)C(C)(C)C` [Compound 88, [1S-[1R*-[1R*,2S*(2S*,3R*)]]]-2,2-Dimethyl-1-[[[3-[[3-[[(1,1-Dimethylethoxcy)-carbonylamino]-2-hydroxy-4-phenylbutyl]amino]-2-hydroxy-1-(phenylmethyl),propyl]amino]-carbonyl]propoyl]carbamic acid, phenylmethyl ester], the IC50 in assay [1] is 0.03 µM. Also, the inhibition at 10 µM in assay [2] came out at 100%.

In the case of `CC(C)[C@H](NC(=O)[C@@H](N)Cc1ccccc1)C(=O)N[C@@H](Cc1ccccc1)[C@H](O)CNC[C@@H](O)[C@H](Cc1ccccc1)NC(=O)[C@@H](NC(=O)[C@@H](N)Cc1ccccc1)C(C)C` [Compound 92, [S-(1R*,2S*)]-N,N'-[Iminobis[2-hydroxy-1-(phenylmethyl)-3,1-propanediyl]bis[N^2-(L-phenylalanyl)-L-valinamide[,trihydrochloride], the IC50 in assay [1] amounted to 39 µM. For the same compound, the inhibition at 10 µM in assay [2] turned out to be 100%.

In the case of `CC(C)[C@H](NC(=O)OCc1nc2ccccc2[nH]1)C(=O)N[C@@H](Cc1ccccc1)[C@H](O)CNC[C@@H](O)[C@H](Cc1ccccc1)NC(=O)OC(C)(C)C` [Compound 93, [S-[1R*,2S*(2S*,3R*)[[-N-[3-[[3-[[(1,1-Dimethylethoxy)carbonyl]amino]-2-hydroxy-4-phenylbutyl]amino]-2-hydroxy-1-(phenylmethyl)propyl]-N2 -]-(1H-benzimidazol-2-ylmethoxy)carbonyl]-L-valinamide], the IC50 in assay [1] came to 0.18 µM. In addition, the inhibition at 10 µM in assay [2] turned out to be 100%.

On to `CC(C)[C@H](NC(=O)[C@H](C)N)C(=O)N[C@@H](Cc1ccccc1)[C@H](O)CNC[C@@H](O)[C@H](Cc1ccccc1)NC(=O)OC(C)(C)C` [Compound 96, [S-[1R*,2S*(2S*,3R*)]-N-]3-[[3-[[(1,1-Dimethylethoxy)carbonyl]amino]-2-hydroxy-4-phenylbutyl]amino]-2-hydroxy-1(phenylmethyl)propyl]-N^2-(L-alanyl)-L-valinamide, fumarate salt], for which, in assay [1], the 50% inhibitory concentration (IC50) was > 7.6 µM. For the same compound, the inhibition at 10 µM in assay [2] stood at 100%.

In the case of `CC(C)C[C@H](N)C(=O)N[C@H](C(=O)N[C@@H](Cc1ccccc1)[C@H](O)CNC[C@@H](O)[C@H](Cc1ccccc1)NC(=O)OC(C)(C)C)C(C)C` [Compound 98, [S-[1R*,2S*(2S*,3R*)]-N-[3-[[3-[[(1,1-Dimethylethoxy)carbonyl]amino]-2-hydroxy-4-phenylbutyl]amino]-2-hydroxy-1(phenylmethyl)propyl]-N^2-(L-leucyl)-L-valinamide, fumarate salt], in assay [1], the IC50 came to 1.3 µM. The inhibition at 10 µM in assay [2] worked out at 100%.

As to `CC(C)[C@H](NC(=O)CNC(=O)OC(C)(C)C)C(=O)N[C@@H](Cc1ccccc1)[C@H](O)CNC[C@@H](O)[C@H](Cc1ccccc1)NC(=O)[C@@H](NC(=O)CNC(=O)OC(C)(C)C)C(C)C` [Compound 99, [S-(1R*,2S*)]-N,N'-[Iminobis[2-hydroxy-1-(phenylmethyl)-3,1-propanediyl]]bis [N^2-[[[1,1-dimethylethoxy)carbonyl]-amino]acetyl]-L-valinamide]], the 50% inhibitory concentration (IC50) in assay [1] is > 100 µM. Moreover, the inhibition at 10 µM in assay [2] was determined as 99%.

In the case of `C[C@@H](O)[C@H](NC(=O)OCc1ccccc1)C(=O)N[C@@H](Cc1ccccc1)[C@H](O)CNC[C@@H](O)[C@H](Cc1ccccc1)NC(=O)OC(C)(C)C` [Compound 100, [S-[1R*,2S*(2S*,3R*)]-N-[3-[[3-[[(1,1-Dimethylethoxy)carbonyl]amino]-2-hydroxy-4-phenylbutyl]amino]-2-hydroxy-1-(phenylmethyl)-propyl]-N^2 [(phenylmethoxy)carbonyl]-L-threoninamide], the 50% inhibitory concentration (IC50) in assay [1] is 0.23 µM. Besides, in assay [2], the inhibition at 10 µM was determined as 99%.

Turning to `CC(C)[C@H](NC(=O)c1nc2ccccc2[nH]1)C(=O)N[C@@H](Cc1ccccc1)[C@H](O)CNC[C@@H](O)[C@H](Cc1ccccc1)NC(=O)OC(C)(C)C` [Compound 101, [S-[1R*,2S*(2S*,3R*)]-N-[3-[[3-[[(1,1-Dimethylethoxy)carbonyl]amino]-2-hydroxy-4-phenylbutyl]amino]-2-hydroxy-1-(phenylmethyl)propyl]-N^2-[(1H-benzimidazol-2-yl)-carbonyl]-L-valinamide]], the concentration for half-maximal inhibition (IC50) in assay [1] worked out at 0.14 µM. Also, in assay [2], the inhibition at 10 µM worked out at 99%.

As to `CC(C)[C@H](NC(=O)CCc1nc2ccccc2[nH]1)C(=O)N[C@@H](Cc1ccccc1)[C@H](O)CNC[C@@H](O)[C@H](Cc1ccccc1)NC(=O)OC(C)(C)C` [Compound 103, [S-[1R*,2S*(2S*,3R*)]-N^2-[3-(1H-Benzimidazol-2-yl)-1-oxo-propyl]-N-[3-[[3-[[(1,1-di-methylethoxy)carbonyl]amino-4-phenylbutyl]amino]-2-hydroxy-1-(phenylmethyl)propyl]-L-valinamide], the half-inhibitory concentration (IC50) in assay [1] is 1.7 µM. Moreover, the inhibition at 10 µM in assay [2] was found to be 98%.

Consider `CC(C)[C@H](NC(=O)OCc1ccccc1)C(=O)N[C@@H](Cc1ccccc1)[C@H](O)CNC[C@@H](O)[C@H](Cc1ccccc1)NC(=O)[C@H](CC(N)=O)NC(=O)OCc1ccccc1` [Compound 112, [S-[1R*,2S*(2S*,3R*)]]-N-[2-Hydroxy-3-[[2-hydroxy-4-phenyl-3-[[N-[(phenyl-methoxy)carbonyl]-L-valyl]amino]butyl]amino]-1-(phenylmethyl)propyl]-N^2-[(phenylmethoxy)-carbonyl]-L-asparaginamide, monohydrochloride], for which the half-inhibitory concentration (IC50) in assay [1] is > 8.6 µM. In addition, in assay [2], the inhibition at 10 µM stood at 100%.

As to `CC(C)[C@H](NC(=O)OCc1ccccc1)C(=O)N[C@@H](Cc1ccccc1)[C@H](O)CNC[C@@H](O)[C@H](Cc1ccccc1)NC(=O)[C@H](CC(N)=O)NC(=O)OC(C)(C)C` [Compound 121, [S-[1R*,2S*(2S*.3R*)]]-N^2-[(1-Dimethylethoxy)carbonyl]-N-[2-hydroxy-3-[[2-hydroxy-4-phenyl-3-[[N-[(phenylmethoxy)carbonyl]-L-valyl]amino]butyl]amino]-1-(phenylmethyl)-propyl]-L-asparaginamide], the IC50 in assay [1] is > 0.3 µM. Besides, the inhibition at 10 µM in assay [2] is 73%.

In the case of `CC(C)OC(=O)N[C@@H](Cc1ccccc1)[C@H](O)CNC[C@@H](O)[C@H](Cc1ccccc1)NC(=O)OC(C)C` [Compound 123, [R-(R*,S*)]-[Iminobis[2-hydroxy-1-(phenylmethyl)-3.1-propandiyl]biscarbamic acid, bis(1-methylethyl)ester], in assay [1], the concentration for half-maximal inhibition (IC50) amounted to 1 µM. Also, the inhibition at 10 µM in assay [2] worked out at 65%.

Turning to `CC(C)[C@H](NC(=O)OCc1ccccc1)C(=O)N[C@@H](Cc1ccccc1)[C@H](O)CNC[C@H](O)[C@H](Cc1ccccc1)NC(=O)OC(C)(C)C` [Compound 125, [S-[1R*,2S*(2R*,3R*)]-N-[3-[[3-[[(1,1-Dimethylethoxy)carbonyl]amino]-2-hydroxy-4-phenylbutyl]amino]-2-hydroxy-1-(phenylmethyl)propyl]-N^2 [(phenylmethoxy)carbonyl]-L-valinamide], the half-inhibitory concentration (IC50) in assay [1] was > 1.5 µM. In addition, the inhibition at 10 µM in assay [2] was found to be 71%.

For the compound `CN(C(=O)OC(C)(C)C)[C@@H](Cc1ccccc1)[C@H](O)CNC[C@@H](O)[C@H](Cc1ccccc1)NC(=O)OC(C)(C)C` [Compound 132, [1S-[1R*,2S*(2S*,3R*)]]-3-[[(1,1-Dimethylethoxy)carbonyl]amino]-2-hydroxy-4-phenylbutyl]amino]-2-hydroxy-1-(phenylmethyl)-propyl]methylcarbamic acid, 1,1-dimethylethyl ester], the IC50 in assay [1] was > 3 µM. Besides, the inhibition at 10 µM in assay [2] worked out at 65%.

Broadly, the IC50 is the concentration that inhibits the measured activity by half. As usually defined, the inhibition is the percentage by which the read-out fell short of the control.
